Four compounds from patent publication US9040727B2, “Histone deacetylase inhibitor of benzamides and use thereof” (Shanghai Institute of Pharmaceutical Industry, priority 2011, dated 2015) can be followed below.

As a reminder, the inhibition is the relative decrease from the control value, in per cent. Usually half-life stands for the time needed for the level to fall by half in the phase considered. The term bioavailability denotes the share of a dose that reaches the circulation, judged against a reference dose that is usually intravenous.

SMILES strings stand for the structures. Read-outs that look alike come from different tables or passages of the source.

One data set deals with HDAC1 (Homo sapiens (Human), UniProt Q13547). The data set is described as follows: In vitro inhibitory activity towards HDAC1 (HDAC Inhibitor Drug Screening Kit). It is filed as biochemical. The conditions noted are these: for inhibitory activity against HDAC1 compared with MS-275 (by IC50): comparison with MS-275; for inhibition at 1 µM: compound at 1 μM; for inhibition at 10 µM: compound at 10 μM. The protocol:
(1) The compounds to be tested were each individually prepared as 10 μM and 1 μM solutions and their inhibitory activities towards HDAC1 at these concentrations were tested.
(§1) Each dilution sample was placed in two wells and the enzyme inhibition IC50 of the compound was tested.

Data set [1] concerns A549 human lung cancer cells. The data set is described as follows: In vitro anti-proliferative effect, CCK-8 method. Format: cell-based. The protocol: (§2) The inhibitory activities of the compounds towards Hut78 T lymphocytic leukemia cells, Jurkat E6-1 human T-cell lymphoma, A549 human lung cancer cells, K562 human chronic myelogenous leukemia cells, Hep3B2.1-7 human liver cancer cells, MDA-MB-435s human breast cancer cells, Colo320 human rectal cancer cell line, and PC-3 human prostate cancer were determined. The inhibition percentages as represented by IC50 values were obtained through CCK-8 method.

In data set [2] the test system is Hep3B2.1-7 human liver cancer cells. The data set is described as follows: In vitro anti-proliferative effect, CCK-8 method. Format: cell-based. Particulars: Hep3B. On the procedure:
as §2

For data set [3], the system named is Hut78 T lymphocytic leukemia cells. Put plainly: In vitro anti-proliferative effect, CCK-8 method. It is filed as cell-based. On the procedure: as §2
(In general: Formazan colour is commonly taken as a measure of viable cells.)

Data set [4] relates to Jurkat E6-1 human T-cell lymphoma. Put plainly: In vitro anti-proliferative effect, CCK-8 method. Format: cell-based. On the procedure: as §2
In data set [5] the test system is K562 human chronic myelogenous leukemia cells. The data set is described as follows: In vitro anti-proliferative effect, CCK-8 method. Format: cell-based. The protocol:
as §2

Data set [6] concerns MDA-MB-435s human breast cancer cells. Put plainly: In vitro anti-proliferative effect, CCK-8 method. Format: cell-based. The protocol: as §2
Data set [7] has as its system PC-3 human prostate cancer. Put plainly: In vitro anti-proliferative effect, CCK-8 method. It is filed as cell-based. The protocol:
as §2

In the next data set the target is hERG potassium channel (Homo sapiens (Human), UniProt Q12809). The data set is described as follows: Effects on hERG potassium channel. It is filed as cell-based. The conditions noted are these: for inhibition at 10 µM: human, hERG potassium current, read-out: Maximum inhibition percentage at 10 μM; for IC50: read-out: Half inhibition concentration for the effect on hERG potassium current IC50. On the technique in general: Block of hERG is tested as a sign of cardiac risk.

Data set [8] can be described thus: Preliminary pharmacokinetic experiment. The conditions noted are these: in vivo, rat.
The next data set relates to HDACs. The data set is described as follows: In vitro inhibition of HDACs (HDAC Inhibitor Drug Screening Kit). It is filed as biochemical. The protocol: The test was conducted according to the instructions in the HDAC Inhibitor Drug Screening Kit (Biovision/Catalog #50051, BPS).
as §1

In data set [9] the test system is Colo320 human rectal cancer cell line. The data set is described as follows: In vitro anti-proliferative effect, CCK-8 method. Format: cell-based. On the procedure:
as §2

In data set [10] the test system is multiple strains of tumor cells. Put plainly: In vitro inhibition of proliferation of tumor cell strains (overall comparison). Particulars: comparison with MS-275. Format: cell-based. On the procedure: as §2
The mark [11] stands for this setting: iv, 2 mg/kg, i.v., read-out: Intravenous half-life (converted).
[12] abbreviates: oral, read-out: Oral half-life (converted).

Sequence of hERG potassium channel (Q12809 whole entry): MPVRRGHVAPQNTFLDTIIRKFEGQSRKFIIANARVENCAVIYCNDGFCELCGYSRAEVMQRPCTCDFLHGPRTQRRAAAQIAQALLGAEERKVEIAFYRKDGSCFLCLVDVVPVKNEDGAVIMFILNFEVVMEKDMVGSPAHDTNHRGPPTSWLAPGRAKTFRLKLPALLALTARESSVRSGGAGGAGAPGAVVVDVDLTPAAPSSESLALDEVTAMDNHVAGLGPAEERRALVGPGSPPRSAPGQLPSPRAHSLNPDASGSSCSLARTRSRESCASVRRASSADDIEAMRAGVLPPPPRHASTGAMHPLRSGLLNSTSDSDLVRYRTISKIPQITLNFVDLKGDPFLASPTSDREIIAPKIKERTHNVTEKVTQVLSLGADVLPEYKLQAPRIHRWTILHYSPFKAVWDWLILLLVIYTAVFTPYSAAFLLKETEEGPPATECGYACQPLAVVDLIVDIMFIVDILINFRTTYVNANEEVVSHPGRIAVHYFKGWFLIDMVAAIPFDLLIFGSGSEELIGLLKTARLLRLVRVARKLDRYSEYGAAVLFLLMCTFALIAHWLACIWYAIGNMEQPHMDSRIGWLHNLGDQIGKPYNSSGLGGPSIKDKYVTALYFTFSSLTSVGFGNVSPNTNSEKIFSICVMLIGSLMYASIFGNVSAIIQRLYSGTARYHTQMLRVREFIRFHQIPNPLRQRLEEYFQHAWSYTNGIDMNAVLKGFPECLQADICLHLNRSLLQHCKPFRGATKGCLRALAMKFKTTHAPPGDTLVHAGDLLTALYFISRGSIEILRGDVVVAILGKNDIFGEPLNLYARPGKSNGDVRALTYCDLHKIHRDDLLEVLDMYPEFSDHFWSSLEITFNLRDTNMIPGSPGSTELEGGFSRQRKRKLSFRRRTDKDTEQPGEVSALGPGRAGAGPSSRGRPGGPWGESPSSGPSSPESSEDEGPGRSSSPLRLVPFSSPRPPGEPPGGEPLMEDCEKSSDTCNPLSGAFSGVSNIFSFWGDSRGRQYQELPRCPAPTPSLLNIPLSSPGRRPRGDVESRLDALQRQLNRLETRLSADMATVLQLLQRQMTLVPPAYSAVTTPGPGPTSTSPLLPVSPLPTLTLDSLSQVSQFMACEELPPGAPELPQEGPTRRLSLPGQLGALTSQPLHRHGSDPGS
Sequence of HDAC1 (Q13547 whole entry): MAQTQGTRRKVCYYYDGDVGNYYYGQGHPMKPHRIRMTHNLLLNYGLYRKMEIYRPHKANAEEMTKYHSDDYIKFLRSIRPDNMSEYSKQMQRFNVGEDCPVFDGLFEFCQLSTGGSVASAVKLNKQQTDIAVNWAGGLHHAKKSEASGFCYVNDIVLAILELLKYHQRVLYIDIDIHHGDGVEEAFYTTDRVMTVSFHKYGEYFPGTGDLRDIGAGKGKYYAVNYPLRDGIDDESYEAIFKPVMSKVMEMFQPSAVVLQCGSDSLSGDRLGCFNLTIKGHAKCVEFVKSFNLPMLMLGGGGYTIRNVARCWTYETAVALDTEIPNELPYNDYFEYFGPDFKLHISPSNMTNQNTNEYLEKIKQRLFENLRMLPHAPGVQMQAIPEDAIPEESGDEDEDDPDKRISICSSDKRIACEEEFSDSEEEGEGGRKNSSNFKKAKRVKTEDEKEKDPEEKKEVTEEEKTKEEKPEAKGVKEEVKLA

For `Nc1ccc(F)cc1NC(=O)c1ccc(CNC(=O)c2cc3ccccc3o2)cc1` [Compound V-9], at HDAC1, the “inhibitory activity against HDAC1 compared with MS-275 (by IC50)” value was “better inhibitory activities against HDAC1 as compared with MS-275”. The same compound registered an inhibition at 1 µM at HDAC1 of 37.9%. Moreover, the inhibition at 10 µM on HDAC1 came out at 69.1%; at hERG potassium channel, 19.9 ± 6.7%. In addition, the IC50 in data set [1] (Homo sapiens) came out at 21200 nM; in data set [2] (Homo sapiens), 15.9 µM; in data set [3] (Homo sapiens, HuT78), 3460 nM; in [4] (Homo sapiens), 2130 nM; in data set [5], 17100 nM; in [6] (Homo sapiens), 14.8 µM. For the same compound, the values for the IC50 (in data set [7] (Homo sapiens); at hERG potassium channel) were 2240 nM and above 10 µM, respectively. The half-life was 57 min in data set [8] (setting [11]) and 382 min in data set [8] (setting [12]). The bioavailability in [8] (oral) amounted to 28.8%.

Turning to `Nc1cnccc1NC(=O)c1ccc(CNC(=O)c2cc3ccccc3[nH]2)cc1` [Compound V-6], the IC50 worked out at 344 nM on HDAC1; 7.79 µM in the data set on HDACs; 1250 nM in data set [1] (Homo sapiens); 3130 nM in [9] (Homo sapiens, COLO 320); 3.07 µM in data set [2] (Homo sapiens); 8.8 nM in data set [3] (Homo sapiens, HuT78). Further, the IC50 is 128 nM in [4] (Homo sapiens), 2090 nM in [5] and 370 nM in data set [7] (Homo sapiens). Moreover, the “inhibitory activity against HDAC1 compared with MS-275 (by IC50)” value against HDAC1 is “better inhibitory activities against HDAC1 as compared with MS-275”. 1 µM produced 68.5% inhibition at HDAC1. 10 µM produced 74.5% inhibition against HDAC1. The “inhibition rate for tumor cells compared with MS-275” value in [10] was “higher inhibition rate for multiple strains of tumor cells as compared with MS-275”.

Consider `Nc1ccccc1NC(=O)c1ccc(CNC(=O)c2cc3ccccc3[nH]2)cc1` [Compound V-5], for which, at HDAC1, the “inhibitory activity against HDAC1 compared with MS-275 (by IC50)” value is recorded as “better inhibitory activities against HDAC1 as compared with MS-275”. Besides, at HDAC1, the inhibition at 1 µM came out at 59.6%. The inhibition at 10 µM against HDAC1 turned out to be 81.1%; at hERG potassium channel, 11.5 ± 0.8%. The IC50 was found to be 2640 nM in [1] (Homo sapiens); 2450 nM in data set [9] (Homo sapiens, COLO 320); 3.46 µM in data set [2] (Homo sapiens); 19.4 nM in data set [3] (Homo sapiens, HuT78); 179 nM in data set [4] (Homo sapiens); 1310 nM in data set [5]. Moreover, the figures for the IC50 (in data set [7] (Homo sapiens); on hERG potassium channel) were 242 nM and above 10 µM, respectively. Further, the half-life in [8] (setting [11]) is 76.2 min; in data set [8] (setting [12]) it was 222 min. This compound gave a bioavailability in [8] (oral) of 7.84%.

With `Nc1ccccc1NC(=O)c1ccc(CNC(=O)OCc2cccnc2)cc1` [MS-275, reference compound], the IC50 amounted to 3.52 µM in the data set with HDACs; 2280 nM in [1]; 522 nM in data set [9]; 6.82 µM in data set [2]; 528 nM in [3] (Hut78); 561 nM in data set [4]. Also, the figures for the IC50 in [6] and in data set [7] were 2.71 µM and 502 nM, respectively.
